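Cells were grown in 96-well plates and exposed to each compound for 48 hours at five concentrations; endpoints were interpolated linearly between bracketing concentrations, or set to the highest concentration if not reached. GI50: concentration for 50% inhibition of growth.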 Activity calls are given as the source filed them. Rule as the data show it: active = GI50 up to about 1.1 µM and inactive = higher.
Assays:
Assay in all cases: DTP human tumour cell line panel, 48 h
786-0 = tested on: 786-0
A498 = tested on: A498
A549 = tested on: A549
ACHN = tested on: ACHN
CAKI-1 = tested on: CAKI-1
COLO 205 = tested on: COLO 205
DLD-1 = tested on: DLD-1
DMS-114 = tested on: DMS-114
DMS-273 = tested on: DMS-273
EKVX = tested on: EKVX
HCT-116 = tested on: HCT-116
HOP-18 = tested on: HOP-18
HOP-62 = tested on: HOP-62
HOP-92 = tested on: HOP-92
HT-29 = tested on: HT-29
IGROV-1 = tested on: IGROV-1
KM-20L2 = tested on: KM-20L2
KM12 = tested on: KM12
LOX IMVI = tested on: LOX IMVI
LXFL 529 = tested on: LXFL 529
M14 = tested on: M14
M19-MEL = tested on: M19-MEL
MOLT-4 = tested on: MOLT-4
Malme-3M = tested on: Malme-3M
NCI-H226 = tested on: NCI-H226
NCI-H23 = tested on: NCI-H23
NCI-H460 = tested on: NCI-H460
NCI-H522 = tested on: NCI-H522
OVCAR-3 = tested on: OVCAR-3
OVCAR-4 = tested on: OVCAR-4
OVCAR-5 = tested on: OVCAR-5
OVCAR-8 = tested on: OVCAR-8
RPMI-8226 = tested on: RPMI-8226
RXF 393 = tested on: RXF 393
SF-268 = tested on: SF-268
SF-295 = tested on: SF-295
SF-539 = tested on: SF-539
SK-MEL-28 = tested on: SK-MEL-28
SK-MEL-2 = tested on: SK-MEL-2
SK-MEL-5 = tested on: SK-MEL-5
SK-OV-3 = tested on: SK-OV-3
SN12C = tested on: SN12C
SNB-19 = tested on: SNB-19
SNB-75 = tested on: SNB-75
SNB-78 = tested on: SNB-78
SR = tested on: SR
SW-620 = tested on: SW-620
TK-10 = tested on: TK-10
U-251 = tested on: U-251
UACC-257 = tested on: UACC-257
UACC-62 = tested on: UACC-62
UO-31 = tested on: UO-31
XF498 = tested on: XF498
CCRF-CEM = tested on: CCRF-CEM
HCC 2998 = tested on: HCC 2998
HCT-15 = tested on: HCT-15
HL-60 = tested on: HL-60
K562 = tested on: K562

C=C1CC2CC(O)CC(C1)C2 (stereo unspecified)
GI50 (786-0): > 100 µM (inactive)
GI50 (A498): > 100 µM (inactive)
GI50 (A549): > 100 µM (inactive)
GI50 (ACHN): > 100 µM (inactive)
GI50 (CAKI-1): > 100 µM (inactive)
GI50 (COLO 205): > 100 µM (inactive)
GI50 (DLD-1): > 100 µM (inactive)
GI50 (DMS-114): > 100 µM (inactive)
GI50 (DMS-273): > 100 µM (inactive)
GI50 (EKVX): > 100 µM (inactive)
GI50 (HCT-116): > 100 µM (inactive)
GI50 (HOP-18): > 100 µM (inactive)
GI50 (HOP-62): > 100 µM (inactive)
GI50 (HOP-92): > 100 µM (inactive)
GI50 (HT-29): > 100 µM (inactive)
GI50 (IGROV-1): > 100 µM (inactive)
GI50 (KM-20L2): > 100 µM (inactive)
GI50 (KM12): > 100 µM (inactive)
GI50 (LOX IMVI): > 100 µM (inactive)
GI50 (LXFL 529): > 100 µM (inactive)
GI50 (M14): > 100 µM (inactive)
GI50 (M19-MEL): > 100 µM (inactive)
GI50 (MOLT-4): 78.2 µM (inactive)
GI50 (Malme-3M): > 100 µM (inactive)
GI50 (NCI-H226): > 100 µM (inactive)
GI50 (NCI-H23): > 100 µM (inactive)
GI50 (NCI-H460): > 100 µM (inactive)
GI50 (NCI-H522): > 100 µM (inactive)
GI50 (OVCAR-3): > 100 µM (inactive)
GI50 (OVCAR-4): > 100 µM (inactive)
GI50 (OVCAR-5): > 100 µM (inactive)
GI50 (OVCAR-8): > 100 µM (inactive)
GI50 (RPMI-8226): 32.4 µM (inactive)
GI50 (RXF 393): > 100 µM (inactive)
GI50 (SF-268): > 100 µM (inactive)
GI50 (SF-295): > 100 µM (inactive)
GI50 (SF-539): > 100 µM (inactive)
GI50 (SK-MEL-28): > 100 µM (inactive)
GI50 (SK-MEL-2): > 100 µM (inactive)
GI50 (SK-MEL-5): > 100 µM (inactive)
GI50 (SK-OV-3): > 100 µM (inactive)
GI50 (SN12C): > 100 µM (inactive)
GI50 (SNB-19): > 100 µM (inactive)
GI50 (SNB-75): > 100 µM (inactive)
GI50 (SNB-78): > 100 µM (inactive)
GI50 (SR): 93.5 µM (inactive)
GI50 (SW-620): > 100 µM (inactive)
GI50 (TK-10): > 100 µM (inactive)
GI50 (U-251): > 100 µM (inactive)
GI50 (UACC-257): > 100 µM (inactive)
GI50 (UACC-62): > 100 µM (inactive)
GI50 (UO-31): > 100 µM (inactive)
GI50 (XF498): > 100 µM (inactive)

Cc1nc(-c2nc(C)c(C(=O)NN(C)C)s2)sc1C(=O)NN(C)C
GI50 (786-0): 30.7 µM (inactive)
GI50 (A498): > 100 µM (inactive)
GI50 (ACHN): > 100 µM (inactive)
GI50 (CAKI-1): > 100 µM (inactive)
GI50 (CCRF-CEM): 31.2 µM (inactive)
GI50 (COLO 205): 21.7 µM (inactive)
GI50 (DLD-1): 33.9 µM (inactive)
GI50 (DMS-273): 16.2 µM (inactive)
GI50 (EKVX): > 100 µM (inactive)
GI50 (HCC 2998): > 100 µM (inactive)
GI50 (HCT-15): 67.9 µM
GI50 (HL-60): 43 µM (inactive)
GI50 (HOP-18): > 100 µM (inactive)
GI50 (HOP-62): > 100 µM (inactive)
GI50 (HOP-92): > 100 µM (inactive)
GI50 (HT-29): > 100 µM (inactive)
GI50 (IGROV-1): > 100 µM (inactive)
GI50 (K562): 32.6 µM (inactive)
GI50 (KM-20L2): > 100 µM (inactive)
GI50 (KM12): > 100 µM (inactive)
GI50 (LOX IMVI): 23.6 µM (inactive)
GI50 (LXFL 529): > 100 µM (inactive)
GI50 (M14): > 100 µM (inactive)
GI50 (M19-MEL): > 100 µM (inactive)
GI50 (MOLT-4): 44.1 µM (inactive)
GI50 (Malme-3M): > 100 µM (inactive)
GI50 (NCI-H226): > 100 µM (inactive)
GI50 (NCI-H23): > 100 µM (inactive)
GI50 (NCI-H460): > 100 µM (inactive)
GI50 (NCI-H522): 34.6 µM (inactive)
GI50 (OVCAR-3): > 100 µM (inactive)
GI50 (OVCAR-4): 53 µM (inactive)
GI50 (OVCAR-5): > 100 µM (inactive)
GI50 (OVCAR-8): > 100 µM (inactive)
GI50 (RPMI-8226): 28.8 µM (inactive)
GI50 (SF-268): > 100 µM (inactive)
GI50 (SF-295): > 100 µM (inactive)
GI50 (SF-539): > 100 µM (inactive)
GI50 (SK-MEL-28): > 100 µM (inactive)
GI50 (SK-MEL-2): > 100 µM (inactive)
GI50 (SK-MEL-5): > 100 µM (inactive)
GI50 (SK-OV-3): > 100 µM (inactive)
GI50 (SN12C): > 100 µM (inactive)
GI50 (SNB-19): > 100 µM (inactive)
GI50 (SNB-75): 60.3 µM (inactive)
GI50 (SNB-78): > 100 µM (inactive)
GI50 (SR): 19.7 µM (inactive)
GI50 (TK-10): > 100 µM (inactive)
GI50 (U-251): > 100 µM (inactive)
GI50 (UACC-257): > 100 µM (inactive)
GI50 (UACC-62): > 100 µM (inactive)
GI50 (UO-31): > 100 µM (inactive)
GI50 (XF498): > 100 µM (inactive)
